The record followed here is patent US4839388A, “Prostacyclins and pharmaceuticals containing the same” (Mitsubishi Chemical Industries Limited, priority 1985, dated 1989).

The subject of assay [1] is Human platelet aggregation. Nature of the assay: Platelet aggregation inhibiting effect (human platelet rich plasma, ADP induced, in vitro). The assay is classed as cell-based. The settings on record: 1 min, human PRP, ADP 2 to 10 μM, 37° C., one minute incubation, read-out: Platelet aggregation inhibiting ratio (IC50). On the procedure:
Bloods were sampled from healthy male adults (22 to 34 years old) with no administration of drug for 2 weeks or more early in the morning when they were hungry. By use of an injector filled with a 3.8% sodium citrate solution, 50 ml of blood was sampled, immediately stirred by turning upside down and centrifuged at 200 G for 15 minutes. The supernatant was separated as the PRP (platelet rich plasma) and the residue was further subjected to centrifugation at 2000 G for 15 minutes, followed by recovery of the supernatant as PPP (poor platelet plasma) which ws provided for use in the experiment. 250 μl of PRP was placed in a cuvette, 5 μl of an 1% aqueous ethanol solution of the compound of the present invention or an 1% acqueous ethanol solution was added, and incubation was carried out at 37° C. for one minute. Then, an aggregation inducing agent (ADP) was added and the process of aggregation was recorded by Aggregometer (produced by Sienco Co.). As the concentration of ADP, the minimum concentrations of ADP (2 to 10 μM) to give the maximum aggregation for respective platelets were employed. The inhibition percentage of platelet aggregation was calculated by the following formula:
Inhibition percentage=(A-B/A)×100
A: Maximum aggregation ratio during addition of solvent ([…] aqueous ethanol solution)
B: Maximum aggregation ratio during addition of the compound of the present invention.
The platelet aggregation inhibiting effects of the compounds of the present invention are shown in terms of IC50 values in Table 1.

Assay [2] relates to Rat secreted gastric acid. Nature of the assay: Antiulcer effect: rat secreted gastric acid inhibiting effect (pylorus ligature). Format: in vivo, Male wistar strain rats. Particulars: 100 μg/kg, s.c., immediately after pylorus ligature; for Inhibition percentage: gastric acid vs. control group; for Amount of gastric acid secreted: gastric juice sampled after 4 hours, solvent 73.6 ± 4.3. On the procedure: Male wistar strain rats (weighing 250-280 g) were fasted for 18 hours and subjected to peritoneotomy under ether anesthesia for ligature of pylorus, and after 4 hours under abstinence from food and water, gastric juice was sampled. The gastric juice was centrifuged at 3000 rpm for 10 minutes, and then the amount, pH and acidity of the gastric juice were measured. The acidity was measured by titration bymeans of an automatic titrating device (produced by Toa Denpa Kogyo) with a 0.1 N NaOH to pH 7.0 and calculated according to the following formula: [formula]
The gastric juice secretion inhibition percentage was calculated according to the following formula: [formula] A: Amount of gastric acid excreted in Control group B: Amount of gastric acid excreted in Drug group.
The drugs to be tested were administrated subcutaneously immediately after pylorus ligature.

Molecules are shown by their SMILES.

Take `O=C(O)COCCC1=C[C@H]2C[C@@H](O)[C@H](C#CC(O)C3CCCCC3)[C@H]2C1` (stereo partly shown) [drawing 48]: the IC50 in assay [1] was determined as 4.5 nM.

Consider `O=C(O)CCC=CC1=C[C@H]2C[C@@H](O)[C@H](C#CC(O)C3CCCCC3)[C@H]2C1` (stereo partly shown) [drawing 50], for which, in assay [2], the Inhibition percentage is 7.1% and the “Amount of gastric acid secreted” value is 68.4 ± 10.1 mEq/l. With `O=C(O)CCC/C=C1\C[C@H]2C[C@@H](O)[C@H](/C=C/[C@@H](O)C3CCCC3)[C@H]2C1` [OP-41483, reference compound], the IC50 in assay [1] amounted to 12 nM.

With `O=C(O)CCC=CC1=C[C@H]2C[C@@H](O)[C@H](C#CC(O)C3CCCCC3)[C@H]2C1` (stereo partly shown) [drawing 46], in assay [1], the IC50 was 10 nM. Regarding `O=C(O)COCCC1=C[C@H]2C[C@@H](O)[C@H](C#CC(O)C3CCCCC3)[C@H]2C1` (stereo partly shown) [drawing 52], in assay [2], the Inhibition percentage is given as 0% and the “Amount of gastric acid secreted” value amounted to 84.9 ± 10.8 mEq/l.
